What was measured:
[1] = compound: CNCc1ccc(-c2[nH]c3cc(F)cc4c3c2CCNC4=O)cc1 [Rucaparib]
[2] = compound: Cc1nc(Nc2ncc(C(=O)Nc3c(C)cccc3Cl)s2)cc(N2CCN(CCO)CC2)n1 [Dasatinib]
[3] = compound: CC(=O)c1c(C)c2cnc(Nc3ccc(N4CCNCC4)cn3)nc2n(C2CCCC2)c1=O
[4] = compound: O=C(CCCCCCC(=O)Nc1ccccc1)NO [Vorinostat]
[5] = compound: Cc1nc(-c2cn3c(n2)-c2ccc(-c4cnn(C(C)(C)C(N)=O)c4)cc2OCC3)n(C(C)C)n1 [Taselisib/GDC0032]
[6] = compound: CC[C@@H]1C(=O)N(C)c2cnc(Nc3ccc(C(=O)N[C@H]4CC[C@H](N5CCN(CC6CC6)CC5)CC4)cc3OC)nc2N1C(C)C [Volasertib/BI6727]
[7] = compound: T1, CN(C)C/C=C/C(=O)Nc1ccc(C(=O)N2CCC[C@@H](Nc3ncc(Cl)c(-c4c[nH]c5ccccc45)n3)C2)cc1 [THZ531]
[8] = compound: T2, CCOc1cc2ncc(C#N)c(Nc3ccc(OCc4ccccn4)c(Cl)c3)c2cc1NC(=O)/C=C/CN(C)C [Neratinib/HKI272]
[9] = compound: CN(C)C/C=C/C(=O)Nc1ccc(O[C@@H]2CCC[C@@H](Nc3ncc(Cl)c(-c4c[nH]c5ccccc45)n3)C2)cc1 [BSJ-01-175]
[10] = compound: T3, CC(=O)c1c(C)c2cnc(Nc3ccc(N4CCN(CCOCCOCCOCCNC(=O)COc5cccc6c5C(=O)N(C5CCC(=O)NC5=O)C6=O)CC4)cn3)nc2n(C2CCCC2)c1=O [BSJ-03-123]
[11] = compound: COc1cccc2c1C(=O)c1c(O)c3c(c(O)c1C2=O)C[C@@](O)(C(=O)CO)C[C@@H]3O[C@H]1C[C@H](N)[C@H](O)[C@H](C)O1 [Doxorubicin]
[12] = compound: CC(=O)Nc1cccc(-n2c(=O)n(C3CC3)c(=O)c3c(Nc4ccc(I)cc4F)n(C)c(=O)c(C)c32)c1
[13] = compound: CC(C)n1nc(-c2ccc3oc(N)nc3c2)c2c(N)ncnc21 [INK128/MLN0128]
[14] = compound: Cc1cc(Nc2ncc(Cl)c(Nc3ccccc3S(=O)(=O)C(C)C)n2)c(OC(C)C)cc1C1CCNCC1 [Ceritinib/LDK378]
[15] = compound: C=CC(=O)Nc1ccc(C(=O)Nc2[nH]nc3c2CN(C(=O)N[C@H](CN(C)C)c2ccccc2)C3(C)C)cc1 [YKL-5-124]; test: increase in dead-cell fraction, 72 h; higher = more death;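 also: breast cancer cell lines in 384-well plates, stained with Hoechst plus LIVE/DEAD far red dye and imaged, cells above an LDR intensity threshold counted dead, Hoechst-negative corpses included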
[16] = compound: CN(C)C/C=C/C(=O)Nc1ccc(C(=O)Nc2cccc(Nc3ncc(Cl)c(-c4c[nH]c5ccccc45)n3)c2)cc1 [THZ1]; test: as above
[17] = compound: T1, THZ531; test: as above
[18] = compound: T2, Neratinib/HKI272; test: as above
[19] = compound: T3, BSJ-03-123; test: as above
[20] = compound: CCc1cnn2c(NCc3ccc[n+]([O-])c3)cc(N3CCCC[C@H]3CCO)nc12; test: as above
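For GR50, 72 h in this document: breast cancer and non-malignant breast epithelial cell lines, Deep Dye Drop or Dye Drop imaging, nine half-log doses, GR normalized to time-zero plates and DMSO-only controls.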

Cell Line: HCC1569
- GR50, 72 h [1]: > 10 µM
- GR50, 72 h [2]: 0.0769 µM
- GR50, 72 h [3]: > 3.16 µM
- GR50, 72 h [4]: 3.31 µM
- GR50, 72 h [5]: 0.0552 µM
- GR50, 72 h [6]: 0.0189 µM
- GR50, 72 h [7]: 0.0461 µM
- GR50, 72 h [8]: 0.0891 µM
- GR50, 72 h [9]: 0.00923 µM
- GR50, 72 h [10]: 2.86 µM
- GR50, 72 h [11]: 0.0255 µM
- GR50, 72 h [12]: > 1 µM
- GR50, 72 h [13]: 0.0132 µM
- GR50, 72 h [14]: 4.5 µM
- increase in dead-cell fraction ([15]; 0.001 µM): 0.0331
- increase in dead-cell fraction ([15]; 0.003162 µM): 0.014
- increase in dead-cell fraction ([15]; 0.01 µM): -0.0042
- increase in dead-cell fraction ([15]; 0.03162 µM): 0.0104
- increase in dead-cell fraction ([15]; 0.1 µM): -0.0403
- increase in dead-cell fraction ([15]; 0.3162 µM): 0.0447
- increase in dead-cell fraction ([15]; 1 µM): 0.0404
- increase in dead-cell fraction ([15]; 3.162 µM): 0.0237
- increase in dead-cell fraction ([15]; 10 µM): 0.151
- increase in dead-cell fraction ([16]; 0.0001 µM): -0.004
- increase in dead-cell fraction ([16]; 0.0003162 µM): -0.0128
- increase in dead-cell fraction ([16]; 0.001 µM): 0.0063
- increase in dead-cell fraction ([16]; 0.003162 µM): -0.0051
- increase in dead-cell fraction ([16]; 0.01 µM): 0.0163
- increase in dead-cell fraction ([16]; 0.03162 µM): 0.0231
- increase in dead-cell fraction ([16]; 0.1 µM): 0.208
- increase in dead-cell fraction ([16]; 0.3162 µM): 0.147
- increase in dead-cell fraction ([16]; 1 µM): 0.166
- increase in dead-cell fraction ([17]; 0.0001 µM): 0.0019
- increase in dead-cell fraction ([17]; 0.0003162 µM): -0.0034
- increase in dead-cell fraction ([17]; 0.001 µM): -0.0007
- increase in dead-cell fraction ([17]; 0.003162 µM): 0.0032
- increase in dead-cell fraction ([17]; 0.01 µM): 0.0103
- increase in dead-cell fraction ([17]; 0.03162 µM): 0.0155
- increase in dead-cell fraction ([17]; 0.1 µM): 0.161
- increase in dead-cell fraction ([17]; 0.3162 µM): 0.273
- increase in dead-cell fraction ([17]; 1 µM): 0.0822
- increase in dead-cell fraction ([18]; 0.0003162 µM): -0.0105
- increase in dead-cell fraction ([18]; 0.001 µM): 0.0063
- increase in dead-cell fraction ([18]; 0.003162 µM): 0.0037
- increase in dead-cell fraction ([18]; 0.01 µM): 0.0107
- increase in dead-cell fraction ([18]; 0.03162 µM): 0.0135
- increase in dead-cell fraction ([18]; 0.1 µM): 0.0196
- increase in dead-cell fraction ([18]; 0.3162 µM): 0.0247
- increase in dead-cell fraction ([18]; 1 µM): 0.0283
- increase in dead-cell fraction ([18]; 3.162 µM): 0.0338
- increase in dead-cell fraction ([19]; 0.001 µM): 0.0046
- increase in dead-cell fraction ([19]; 0.003162 µM): -0.0135
- increase in dead-cell fraction ([19]; 0.01 µM): 0.0005
- increase in dead-cell fraction ([19]; 0.03162 µM): 0.0168
- increase in dead-cell fraction ([19]; 0.1 µM): 0.002
- increase in dead-cell fraction ([19]; 0.3162 µM): 0.0007
- increase in dead-cell fraction ([19]; 1 µM): 0.0247
- increase in dead-cell fraction ([19]; 3.162 µM): 0.0066
- increase in dead-cell fraction ([19]; 10 µM): 0.0866
- increase in dead-cell fraction ([20]; 0.0001 µM): -0.0022
- increase in dead-cell fraction ([20]; 0.0003162 µM): -0.0018
- increase in dead-cell fraction ([20]; 0.001 µM): -0.0077
- increase in dead-cell fraction ([20]; 0.003162 µM): -0.0052
- increase in dead-cell fraction ([20]; 0.01 µM): 0.0106
- increase in dead-cell fraction ([20]; 0.03162 µM): 0.112
- increase in dead-cell fraction ([20]; 0.1 µM): 0.155
- increase in dead-cell fraction ([20]; 0.3162 µM): 0.138
- increase in dead-cell fraction ([20]; 1 µM): 0.141

Reference: the supplement of paper PMC9663587
